Holding throughout (type): cell-based
One assay has as its system eIF2B mutant B4 R483W. The experiment in a line: ATF4-Luc assay, VWMD eIF2B mutant HEK293T ATF4-Fluc cells, B4 R483W. The following applies: Homo sapiens, HEK-293T. As to the method: (§1) In order to test exemplary compounds of the invention in a cellular context, a stable VWMD cell line was first constructed. The ATF4 reporter was prepared by fusing the human full-length ATF4 5′-UTR (NCBI Accession No. BC022088.2) in front of the firefly luciferase (FLuc) coding sequence lacking the initiator methionine as described in Sidrauski et al (eLife 2013). The construct was used to produce recombinant retroviruses using standard methods and the resulting viral supernatant was used to transduce HEK293T cells, which were then subsequently selected with puromycin to generate a stable cell line.
(§2) HEK293T cells carrying the ATF4 luciferase reporter were plated on polylysine coated 384-well plates (Greiner Bio-one) at 30,000 cells per well. Cells were treated the next day with 1 μg/mL tunicamycin and 200 nM of a compound of Formula (I) for 7 hours. Luminescence was measured using One Glo (Promega) as specified by the manufacturer. Cells were maintained in DMEM with L-glutamine supplemented with 10% heat-inactivated FBS (Gibco) and Antibiotic-Antimycotic solution (Gibco).
(§3) VWMD mutations were introduced into the genome of the HEK293T ATF4-Fluc stable cell lines by using Gene Art CRISPR nuclease vector with OFP Reporter kit (ThermoFisher; see Table 3 below). Guide RNAs were designed using the CRISPR Design Tool (http://crispr.mit.edu) and ligated into the CRISPR OFP Nuclease Vector. To obtain homology directed repair (HDR) incorporating VWMD point mutations in the genome, 150 bp ssDNA ultramer oligos were synthesized by Integrated DNA Technologies containing specific mutations of interest. In addition to the VWMD mutations, the ssDNA HDR templates contained a silent mutation to the PAM site of the CRISPR gRNA sequence (to avoid further Cas9 cutting) and 75 bp of homology on each side of the mutation.
(§4) HEK293T ATF4-Fluc cells were transfected with 500 ng of the CRISPR OFP Nuclease Vector and 1 μL of 10 μM ssDNA HDR template using lipofectamine 3000 (ThermoFisher) or SF Cell Line 4D-nucleofector X Kit (Lonza) according to the manufacturer's instructions. After 2-3 days of recovery, single cells were sorted for positive OFP expression on a FACS Aria II (BD Biosciences) into wells of a 96 well plate and allowed to recover for 1-2 weeks.
(§5) The resulting clones were surveyed for CRISPR editing and HDR by harvesting the genomic DNA with the PureLink Genomic DNA kit (ThermoFisher), amplifying a […] locus near the editing site, and sequencing the amplicon. […] Typical clones obtained were hemizygous for the VWMD point mutation, with one or two alleles harboring the desired mutation, and the remaining alleles knocked out (edited to produce a premature stop codon).

The next assay deals with eIF2B mutant B3 I346T. The experiment in a line: ATF4-Luc assay, VWMD eIF2B mutant HEK293T ATF4-Fluc cells, B3 I346T. Particulars: Homo sapiens, HEK-293T. As to the method: as §1, §2, §3, §4, §5
Another assay concerns eIF2B mutant B5 R113H. As to the kind of experiment: ATF4-Luc assay, VWMD eIF2B mutant HEK293T ATF4-Fluc cells, B5 R113H. Particulars: Homo sapiens, HEK-293T. On the procedure:
as §1, §2, §3, §4, §5

Another assay has as its system eIF2B mutant B5 R195H. As to the kind of experiment: ATF4-Luc assay, VWMD eIF2B mutant HEK293T ATF4-Fluc cells, B5 R195H. Particulars: Homo sapiens, HEK-293T. As to the method: as §1, §2, §3, §4, §5
For the next assay, the system named is eIF2B mutant B1 V184. As to the kind of experiment: ATF4-Luc assay, VWMD eIF2B mutant HEK293T ATF4-Fluc cells, B1 V184. The following applies: Homo sapiens, HEK-293T. On the procedure: as §1, §2, §3, §4, §5
The subject of another assay is eIF2B mutant B4 R357W. The experiment in a line: ATF4-Luc assay, VWMD eIF2B mutant HEK293T ATF4-Fluc cells, B4 R357W. The following applies: Homo sapiens, HEK-293T. On the procedure: as §1, §2, §3, §4, §5
The subject of a further assay is eIF2B mutant B3 H341Q. As to the kind of experiment: ATF4-Luc assay, VWMD eIF2B mutant HEK293T ATF4-Fluc cells, B3 H341Q. Particulars: Homo sapiens, HEK-293T. On the procedure: as §1, §2, §3, §4, §5
The subject of assay [1] is ATF4 luciferase reporter in HEK293T cells. As to the kind of experiment: ATF4-Luc assay, HEK293T cells carrying the ATF4 luciferase reporter (in vitro model of VWMD). The following applies: Homo sapiens, HEK-293T, read-out: ATF4-Luc EC50. On the procedure:
as §1, §2
Background: In a reporter assay the amount or activity of a reporter protein is the signal.

Where [2] appears, read: HEK293T ATF4 luciferase reporter cells, 1 μg/mL tunicamycin, 7 hours.

The record followed here is patent publication US20250122188A1, “MODULATORS OF THE INTEGRATED STRESS PATHWAY” (Calico Life Sciences LLC, priority 2016, published 2025).

Like-named read-outs stand apart in the source and are kept apart here.

For the compound `O=C(COc1ccc(Cl)cc1)NC12CC(NC(=O)COc3ccc(Cl)cc3)(C1)C2` [Compound 112, N,N′-(bicyclo[1.1.1]pentane-1,3-diyl)bis[2-(4-chlorophenoxy)acetamide]], the EC50 in the assay on eIF2B mutant B4 R483W, with eIF2B mutant B3 I346T, in the assay with eIF2B mutant B5 R113H, with eIF2B mutant B5 R195H, in the assay with eIF2B mutant B1 V184 and with eIF2B mutant B4 R357W was less than 10 nM in each case. The EC50 (in general, the concentration giving half of the maximal effect) with eIF2B mutant B3 H341Q was less than 10 nM.
For `O=C(COc1ccc(C(F)(F)F)nc1)NC12CC(NC(=O)COc3ccc(Cl)c(F)c3)(C1)C2` [Compound 175, 2-(4-chloro-3-fluorophenoxy)-N-[3-(2-{[6-(trifluoromethyl)pyridin-3-yl]oxy}acetamido)bicyclo[1.1.1]pentan-1-yl]acetamide], the EC50 in the assay with eIF2B mutant B4 R483W was less than 10 nM; with eIF2B mutant B3 I346T it was less than 10 nM; in the assay on eIF2B mutant B5 R113H, 10 to 50 nM; in the assay on eIF2B mutant B5 R195H it was 10 to 50 nM; in the assay on eIF2B mutant B1 V184 it was 50 to 250 nM; in the assay with eIF2B mutant B4 R357W, 10 to 50 nM. In the assay with eIF2B mutant B3 H341Q, this compound came in with an EC50 of 10 to 50 nM.
With `Cc1noc(COCC(=O)NC23CC(NC(=O)COc4ccc(Cl)c(F)c4)(C2)C3)n1` [Compound 217, 2-(4-chloro-3-fluorophenoxy)-N-(3-{2-[(3-methyl-1,2,4-oxadiazol-5-yl)methoxy]acetamido}bicyclo[1.1.1]pentan-1-yl)acetamide], the EC50 with eIF2B mutant B4 R483W, in the assay with eIF2B mutant B3 I346T, in the assay on eIF2B mutant B5 R113H, in the assay with eIF2B mutant B5 R195H, in the assay with eIF2B mutant B1 V184 and in the assay with eIF2B mutant B4 R357W was more than 2000 nM each time. This compound returned a concentration for a half-maximal effect (EC50) with eIF2B mutant B3 H341Q of more than 2000 nM.
`O=C(COc1ccc(Cl)c(F)c1)NC12CCC(NC(=O)COc3ccc(Cl)c(F)c3)(CC1)[C@H](O)C2` [Compound 298, N,N′-[(2R)-2-hydroxybicyclo[2.2.2]octane-1,4-diyl]bis[2-(4-chloro-3-fluorophenoxy)acetamide]]: the EC50 (in the assay with eIF2B mutant B4 R483W; in the assay with eIF2B mutant B3 I346T; in the assay with eIF2B mutant B5 R113H; in the assay with eIF2B mutant B5 R195H; with eIF2B mutant B1 V184; in assay [1] (setting [2])) was less than 10 nM in each case. Besides, the EC50 in the assay with eIF2B mutant B4 R357W and with eIF2B mutant B3 H341Q was less than 10 nM each time.
Consider `O=C(COc1ccc(Cl)c(F)c1)NC12CCC(NC(=O)COc3ccc(C(F)(F)F)nc3)(CC1)[C@@H](F)C2` [Compound 373, 2-(4-chloro-3-fluorophenoxy)-N-[(3S)-3-fluoro-4-(2-{[6-(trifluoromethyl)pyridin-3-yl]oxy}acetamido)bicyclo[2.2.2]octan-1-yl]acetamide], for which, in assay [1] (setting [2]), the EC50 is 50 to 250 nM.
On to `O=C(/C=C/c1ccc(OC(F)(F)F)cn1)NC12CC(NC(=O)COc3ccc(Cl)c(F)c3)(C1)C2` [Compound 376, (2E)-N-{3-[2-(4-chloro-3-fluorophenoxy)acetamido]bicyclo[1.1.1]pentan-1-yl}-3-[5-(trifluoromethoxy)pyridin-2-yl]prop-2-enamide], for which the EC50 in assay [1] (setting [2]) was in the range of 250 to 500000 nM.
As for `O=C(COc1ccc(C(F)F)cc1)NC12CC(NC(=O)COc3ccc(C(F)F)cc3)(C1)C2` [Compound 389, N,N′-(bicyclo[1.1.1]pentane-1,3-diyl)bis{2-[4-(difluoromethyl)phenoxy]acetamide}], the concentration for a half-maximal effect (EC50) in assay [1] (setting [2]) lay in the range of 250 to 500000 nM.
As to `O=C(COc1ccc2c(c1)OC(F)(F)O2)NC12CCC(NC(=O)COc3ccc4c(c3)OC(F)(F)O4)(C1)C2` [Compound 391, N,N′-(bicyclo[2.1.1]hexane-1,4-diyl)bis{2-[(2,2-difluoro-2H-1,3-benzodioxol-5-yl)oxy]acetamide}], the EC50 in assay [1] (setting [2]) fell in the range of 250 to 500000 nM.
Turning to `CC(O)(c1ccc(OCC(=O)NC23CC(NC(=O)COc4ccc(Cl)c(F)c4)(C2)C3)cc1)C(F)(F)F` (centres unmarked) [Compound 413, 2-(4-chloro-3-fluorophenoxy)-N-(3-{2-[4-(1,1,1-trifluoro-2-hydroxypropan-2-yl)phenoxy]acetamido}bicyclo[1.1.1]pentan-1-yl)acetamide], in assay [1] (setting [2]), the EC50 is 250 to 500000 nM.
Regarding `CC(C)(O)c1ccc(OCC(=O)NC23CC(NC(=O)COc4ccc(Cl)c(Cl)c4)(C2)C3)cc1` [Compound 422, 2-(3,4-dichlorophenoxy)-N-(3-{2-[4-(2-hydroxypropan-2-yl)phenoxy]acetamido}bicyclo[1.1.1]pentan-1-yl)acetamide], the EC50 in assay [1] (setting [2]) was in the range of 250 to 500000 nM.
Take `O=C(COc1ccc(Cl)c(F)c1)NC12CC(NC(=O)Oc3ccc(Cl)cc3)(C1)C2` [Compound 434, 4-chlorophenyl {3-[2-(4-chloro-3-fluorophenoxy)acetamido]bicyclo[1.1.1]pentan-1-yl}carbamate]: the EC50 in assay [1] (7 h) fell in the range of 250 to 500000 nM.
Regarding `Cc1ccc(OC(=O)NC23CC(NC(=O)COc4ccc(Cl)c(F)c4)(C2)C3)cc1` [Compound 435, 4-methylphenyl {3-[2-(4-chloro-3-fluorophenoxy)acetamido]bicyclo[1.1.1]pentan-1-yl}carbamate], the EC50 in assay [1] (7 h) fell in the range of 250 to 500000 nM.
In the case of `CCc1cc(C)cc(OCC(=O)NC23CCC(NC(=O)COc4ccc(Cl)c(F)c4)(CC2)C[C@@H]3O)c1` [Compound 494, 2-(4-chloro-3-fluorophenoxy)-N-{(3S)-4-[2-(3-ethyl-5-methylphenoxy)acetamido]-3-hydroxybicyclo[2.2.2]octan-1-yl}acetamide], in assay [1] (setting [2]), the EC50 is 250 to 500000 nM.
In the case of `COc1cc(OC)nc(OCC(=O)NC23CCC(NC(=O)COc4ccc(Cl)c(F)c4)(CC2)C[C@@H]3O)n1` [Compound 498, 2-(4-chloro-3-fluorophenoxy)-N-[(3S)-4-{2-[(4,6-dimethoxypyrimidin-2-yl)oxy]acetamido}-3-hydroxybicyclo[2.2.2]octan-1-yl]acetamide], in assay [1] (setting [2]), the EC50 is 250 to 500000 nM.
On the same count and under the same terms, the figure for `O=C(COc1ccc(Cl)c(F)c1)NC12CCC(NC(=O)COc3ncccn3)(CC1)[C@@H](O)C2` [Compound 500, 2-(4-chloro-3-fluorophenoxy)-N-[(3S)-3-hydroxy-4-{2-[(pyrimidin-2-yl)oxy]acetamido}bicyclo[2.2.2]octan-1-yl]acetamide] is more than 2000 nM.
On to `CC(C)(C)c1ccc(OCC(=O)NC23CCC(NC(=O)COc4ccc(Cl)c(F)c4)(CC2)C[C@@H]3O)cc1` [Compound 506, 2-(4-tert-butylphenoxy)-N-{(2S)-4-[2-(4-chloro-3-fluorophenoxy)acetamido]-2-hydroxybicyclo[2.2.2]octan-1-yl}acetamide], for which, in assay [1] (setting [2]), the EC50 is 250 to 500000 nM.
